This note sets out measurements from patent US20250066329A1, “PIPERIDINYLPYRIDINYLCARBONITRILE DERIVATIVES AS INHIBITORS OF GLUTAMINYL-PEPTIDE CYCLOTRANSFERASE AND GLUTAMINYL-PEPTIDE CYCLOTRANSFERASE LIKE PROTEIN” (Boehringer Ingelheim International GmbH, priority 2023, published 2025).

Data set [1] has as its target T1, QPCTL (Homo sapiens, UniProt Q9NXS2).
T1 construct: made in house
As to the kind of experiment: Assay A: biochemical QPCTL activity assay (MALDI-TOF MS, CD47 peptide substrate). Particulars: 0.5 nM enzyme, 10 μM CD47 peptide substrate; read-out: Inhibition of QPCTL: IC50. The method, then:
(§1) QPCT or QPCTL dependent conversion of N-terminal glutamine to pyroglutamate of CD47 was monitored via MALDI-TOF MS. Test compounds were dissolved in 100% DMSO and serially diluted into clear 1,536-well microtiter plates. Enzymatic reactions were set up in assay buffer containing 20 mM Tris pH 7.5, 0.1 mM TCEP, 0.01% BSA, and 0.001% Tween20. […] The plates were incubated for 10 min in a humidified incubator at 24° C. Subsequently, 2.5 μL of CD47 peptide substrate surrogate (^19[…]^33) was added to each well (final concentration: 10 μM for QPCTL/20 μM for QPCT). The plates were mixed for 30 sec at 1,000 rpm and subsequently incubated for 40 min in a humidified incubator at 24° C. […] The plates were sealed with an adhesive foil, mixed for 30 s at 1,000 rpm and stored at room temperature until preparation of the MALDI target plates. […] QPCT or QPCTL activity was monitored by calculating the ratio between product and internal standard signals followed by normalization to high (100% activity) and low (0% activity) controls. Determination of compound potencies was obtained by fitting the dose-response data to a four-parameter logistical equation.

Data set [2] has as its system SIRPα signalling induced by Raji cells. As to the kind of experiment: Assay B: SIRPα signalling assay using Raji cells. It is filed as cell-based. The following applies: Homo sapiens, read-out: Inhibition of SIRPα signalling induced by Raji cells: IC50. As to the method: (§2) Two cell types are independently used: the Raji cell line (lymphoblast-like human cell line derived from B lymphocytes from a Burkitt's lymphoma patient in 1963) and A549 cells (adenocarcinomic human alveolar basal epithelial cells).
(§3) Test compounds were dissolved in 100% DMSO and serially diluted into a white 384-well microtiter cell culture plate (PerkinElmer #60076780 in case of Raji assay; PDL-coated plates Greiner #781945 in case of A549 assay). 5000 Raji cells (ATCC #CC86) or 5000 A549 cells (ATCC #CCL-185) in Assay Complete Cell Plating reagent 30 (DiscoverX 93-0563R30B) were added per well. The assay plate was incubated for 48 h at 37° C., 95% humidity and 5% CO2. 15000 reporter cells (Jurkat PathHunter SIRPαV1, DiscoverX #93-1135C19) were added to each well, and the plate was incubated for 5 h at 37° C., 95% humidity and 5% CO2. Bioassay reagent 1 of the PathHunter Bioassay detection kit (DiscoverX 93-0001) was added to each well of the plate using a multichannel pipette followed by a 15 min incubation at room temperature. Afterwards bioassay reagent 2 was added followed by 60 min incubation at room temperature (incubation in the dark). The analysis of the data was performed using the luminescence signal generated by beta-galactosidase in the PathHunter reporter cell line. The luminescence measurement was done using a Pherastar Multi-Mode Reader. Dose-response curves & IC50 data were calculated with 4-parameter sigmoidal dose response formula.

The target in data set [3] is T2, QPCT (Homo sapiens, UniProt Q16769).
T2 construct: purchased Origine (OriGene) TP700028
T2 sequence (Q16769 29-361): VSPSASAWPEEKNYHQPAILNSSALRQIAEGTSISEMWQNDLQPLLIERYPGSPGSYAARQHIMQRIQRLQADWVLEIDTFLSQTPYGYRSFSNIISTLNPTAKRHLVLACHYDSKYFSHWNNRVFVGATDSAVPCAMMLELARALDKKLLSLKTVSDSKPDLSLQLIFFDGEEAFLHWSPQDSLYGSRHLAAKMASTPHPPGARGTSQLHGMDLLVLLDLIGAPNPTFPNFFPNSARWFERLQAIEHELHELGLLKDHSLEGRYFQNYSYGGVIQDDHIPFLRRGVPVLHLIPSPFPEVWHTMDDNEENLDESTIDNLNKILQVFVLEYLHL
As to the kind of experiment: Assay A: biochemical QPCT activity assay (MALDI-TOF MS, CD47 peptide substrate). Particulars: 0.5 nM enzyme, 20 μM CD47 peptide substrate; read-out: Inhibition of QPCT: IC50. As to the method: as §1

The nature of data set [4]: Assay C: permeability in CACO-2 cells. It counts as in vitro ADME. Particulars: human, pH 7.2; for efflux ratio at 2 h: Caco-2, permeability B-A/permeability A-B; for Papp A→B at 2 h: Caco-2, apical to basolateral. As to the method:
Caco-2 cells (1-2×10^5 cells/1 cm^2 area) are seeded on filter inserts (Costar transwell polycarbonate or PET filters, 0.4 µm pore size) and cultured (DMEM) for 10 to 25 days. Compounds are dissolved in appropriate solvent (like DMSO, 1-20 mM stock solutions). […] The transport solution (TL) is applied to the apical or basolateral donor side for measuring A-B or B-A permeability (3 filter replicates), respectively. Samples are collected at the start and end of experiment from the donor and at various time intervals for up to 2 hours also from the receiver side for concentration measurement by HPLC-MS/MS or scintillation counting. Sampled receiver volumes are replaced with fresh receiver solution.
Efflux ratio (ER)=permeability B-A/permeability A-B
(Caco-2 cells form a polarised layer with tight junctions and transporters.)

Data set [5] deals with SIRPα signalling induced by A549 cells. The data set can be described thus: Assay B: SIRPα signalling assay using A549 cells. Particulars: Homo sapiens, read-out: Inhibition of SIRPα signalling induced by A549 cells: IC50. It counts as cell-based. The method, then: as §2, §3
[6] abbreviates: Raji cells, 48 h compound incubation, PathHunter SIRPαV1 reporter cells.
Where [7] appears, read: A549 cells, 48 h compound incubation, PathHunter SIRPαV1 reporter cells.

Where two headings read alike, the source gives them in different places.

One may read the IC50 as the concentration that inhibits the measured activity by half. One may read the efflux ratio as the permeability from basolateral to apical divided by that in the opposite direction, in the common usage. For orientation: Papp A→B means how fast a substance crosses the layer from the apical side.

T1 sequence (Q9NXS2 whole entry): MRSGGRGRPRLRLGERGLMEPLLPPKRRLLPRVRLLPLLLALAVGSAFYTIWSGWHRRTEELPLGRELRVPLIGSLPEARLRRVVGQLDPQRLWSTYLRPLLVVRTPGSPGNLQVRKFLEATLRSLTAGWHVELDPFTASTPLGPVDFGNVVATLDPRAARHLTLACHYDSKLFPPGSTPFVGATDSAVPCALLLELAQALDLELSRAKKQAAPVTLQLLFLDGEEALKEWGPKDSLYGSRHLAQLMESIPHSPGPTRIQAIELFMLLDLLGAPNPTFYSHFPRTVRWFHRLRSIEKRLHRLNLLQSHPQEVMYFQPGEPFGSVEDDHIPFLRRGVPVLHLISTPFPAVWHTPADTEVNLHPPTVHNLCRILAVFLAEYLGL

Take `C[C@H]1C[C@H](c2nncn2C)CCN1c1c(C#N)cc(C(F)(F)F)nc1-c1ccc(F)nc1` [Example 4, 6′-fluoro-3-[(2S,4R)-2-methyl-4-(4-methyl-4H-1,2,4-triazol-3-yl)piperidin-1-yl]-6-(trifluoromethyl)-[2,3′-bipyridine]-4-carbonitrile]: the IC50 amounted to 6 nM in data set [1], 925 nM in data set [2] (setting [6]) and 74 nM in data set [3]. Further, the efflux ratio at 2 h in data set [4] is 4.6. The apical-to-basolateral permeability (Papp A→B) at 2 h in data set [4] amounted to 15 ×10⁻⁶ cm/s.

On to `C[C@@H]1C[C@H](c2nncn2C)CCN1c1c(C#N)ccnc1-c1ccc(F)nc1` (racemic) [Example 11], for which the 50% inhibitory concentration (IC50) in data set [1] came to 3 nM; in data set [2] (setting [6]), 89 nM; in data set [3] it was 27 nM.

Consider `C[C@@H]1C[C@H](c2nncn2C)CCN1c1c(C#N)cc(C(F)(F)F)nc1-c1ccc(F)nc1` [Example 10, 6′-fluoro-3-[(2R,4R)-2-methyl-4-(4-methyl-4H-1,2,4-triazol-3-yl)piperidin-1-yl]-6-(trifluoromethyl)-[2,3′-bipyridine]-4-carbonitrile], for which the concentration for half-maximal inhibition (IC50) in data set [1] came out at 10 nM; in data set [2] (setting [6]), 1100 nM; in data set [3], 23 nM; in data set [5] (setting [7]), 111 nM. For the same molecule, in data set [4], the efflux ratio at 2 h was determined as 5.8. This molecule also yielded a Papp A→B at 2 h in data set [4] of 7.8 ×10⁻⁶ cm/s.

Take `Cn1cnnc1C1CCN(c2c(C#N)cc(C(F)(F)F)nc2-c2ccc(F)nc2)C2(CC2)C1` (racemic) [Example 17]: the IC50 in data set [1] is 3 nM; in data set [2] (setting [6]), 246 nM; in data set [3], 13 nM; in data set [5] (setting [7]) it was 86 nM. Also, in data set [4], the efflux ratio at 2 h worked out at 10.4. Also, the apparent permeability from apical to basolateral (Papp A→B) at 2 h in data set [4] turned out to be 5.1 ×10⁻⁶ cm/s.

`C[C@@H]1C[C@](F)(c2nncn2C)CCN1c1c(C#N)cc(C(F)(F)F)nc1-c1ccc(F)nc1` [Example 14]: the IC50 worked out at 16 nM in data set [1], 621 nM in data set [2] (setting [6]), 24 nM in data set [3] and 232 nM in data set [5] (setting [7]). Besides, the efflux ratio at 2 h in data set [4] came out at 1.2. Moreover, the Papp A→B at 2 h in data set [4] is 58 ×10⁻⁶ cm/s.

For the molecule `Cn1cnnc1C1CCN(c2ncccc2-c2ccc(F)nc2)CC1` [SEN177, reference compound], the IC50 in data set [2] (Raji, 48 h) stood at 1360 nM; in data set [5] (A549, 48 h) it was 214 nM.

For the molecule `C[C@@H]1C[C@](F)(c2nncn2C)CCN1c1c(C#N)ccnc1-c1ccc(F)nc1` [Example 13], the IC50 in data set [1] came out at 6 nM; in data set [2] (setting [6]) it was 301 nM; in data set [3], 14 nM; in data set [5] (setting [7]), 236 nM. Also, the efflux ratio at 2 h in data set [4] turned out to be 2.4. For the same molecule, in data set [4], the Papp A→B at 2 h amounted to 22 ×10⁻⁶ cm/s.

Take `C[C@H]1C[C@H](c2nncn2C)CCN1c1c(C#N)ccnc1-c1ccnnc1` [Example 6, 3-[(2S,4R)-2-methyl-4-(4-methyl-4H-1,2,4-triazol-3-yl)piperidin-1-yl]-2-(pyridazin-4-yl)pyridine-4-carbonitrile]: the IC50 in data set [1] worked out at 2 nM; in data set [2] (setting [6]), 540 nM; in data set [3], 3 nM; in data set [5] (setting [7]), 551 nM. Further, in data set [4], the efflux ratio at 2 h is 8.4. The same molecule displayed a Papp A→B at 2 h in data set [4] of 0.2 ×10⁻⁶ cm/s.

In the case of `C[C@H]1C[C@H](c2nncn2C)CCN1c1c(C#N)ccnc1-c1ccc(F)nc1` [Example 5, 6′-fluoro-3-[(2S,4R)-2-methyl-4-(4-methyl-4H-1,2,4-triazol-3-yl)piperidin-1-yl]-[2,3′-bipyridine]-4-carbonitrile], the IC50 in data set [1] stood at 1 nM; in data set [2] (setting [6]), 48 nM; in data set [3], 2 nM; in data set [5] (setting [7]) it was 57 nM. Besides, in data set [4], the efflux ratio at 2 h came to 5. In addition, the Papp A→B at 2 h in data set [4] came out at 3.6 ×10⁻⁶ cm/s.

For `Cc1cnnn1C1CCN(c2ncccc2-c2ccc(F)nc2)CC1` [Example 3], the IC50 was found to be 52 nM in data set [1], 2740 nM in data set [2] (setting [6]), 482 nM in data set [3] and 921 nM in data set [5] (setting [7]). For the same molecule, the efflux ratio at 2 h in data set [4] was 0.8. Further, in data set [4], the Papp A→B at 2 h is 93 ×10⁻⁶ cm/s.

Turning to `CC[C@@H]1C[C@H](c2nncn2C)CCN1c1c(C#N)cc(C(F)(F)F)nc1-c1ccc(F)nc1` [Example 9], the IC50 in data set [1] was found to be 18 nM; in data set [2] (setting [6]), 325 nM; in data set [3] it was 50 nM; in data set [5] (setting [7]) it was 109 nM. For the same molecule, in data set [4], the efflux ratio at 2 h turned out to be 3.8. Besides, the Papp A→B at 2 h in data set [4] stood at 22 ×10⁻⁶ cm/s.

As for `Cn1cnnc1[C@@H]1CCN(c2c(C#N)cc(C(F)(F)F)nc2-c2cnc3nn(C(C)(C)C)cc3c2)[C@H](C2CC2)C1` [Example 7, 2-{2-tert-butyl-2H-pyrazolo[3,4-b]pyridin-5-yl}-3-[(2S,4R)-2-cyclopropyl-4-(4-methyl-4H-1,2,4-triazol-3-yl)piperidin-1-yl]-6-(trifluoromethyl)pyridine-4-carbonitrile], the 50% inhibitory concentration (IC50) was found to be 1 nM in data set [1], 9 nM in data set [2] (setting [6]), 1 nM in data set [3] and 12 nM in data set [5] (setting [7]). For the same molecule, in data set [4], the efflux ratio at 2 h came out at 23.5. This molecule showed an apical-to-basolateral permeability (Papp A→B) at 2 h in data set [4] of 2 ×10⁻⁶ cm/s.

As to `Cn1cnnc1[C@@H]1CCN(c2c(C#N)cc(C(F)(F)F)nc2-c2cnc3nn(C(C)(C)C)cc3c2)[C@@H](C2CC2)C1` (racemic) [Example 3], the IC50 is 1 nM in data set [1], 11 nM in data set [2] (setting [6]), 1 nM in data set [3] and 11 nM in data set [5] (setting [7]). Also, the efflux ratio at 2 h in data set [4] was found to be 39.1. The molecule further gave an apparent permeability from apical to basolateral (Papp A→B) at 2 h in data set [4] of 1.1 ×10⁻⁶ cm/s.

As to `Cn1cnnc1[C@@H]1CCN(c2c(C#N)cc(C(F)(F)F)nc2-c2ccc(F)nc2)[C@H](C2CC2)C1` [Example 8], the IC50 in data set [1] came to 1 nM; in data set [2] (setting [6]) it was 47 nM; in data set [3] it was 6 nM; in data set [5] (setting [7]) it was 47 nM. The efflux ratio at 2 h in data set [4] worked out at 3.3. The same molecule came in with an apical-to-basolateral permeability (Papp A→B) at 2 h in data set [4] of 22 ×10⁻⁶ cm/s.

As for `C[C@@H]1C[C@](F)(c2nncn2C)CCN1c1c(C#N)cc(C(F)(F)F)nc1-c1ccnnc1` [Example 15], the IC50 in data set [1] was 14 nM; in data set [2] (setting [6]), 837 nM; in data set [3] it was 24 nM; in data set [5] (setting [7]), 486 nM. Besides, the efflux ratio at 2 h in data set [4] worked out at 9.4. Moreover, the Papp A→B at 2 h in data set [4] was 3.3 ×10⁻⁶ cm/s.

On to `Cn1cnnc1[C@@H]1CCN(c2c(C#N)cc(C(F)(F)F)nc2-c2ccc(F)nc2)[C@@H](C2CC2)C1` (racemic) [Example 2, (rac)-3-[trans-2-cyclopropyl-4-(4-methyl-4H-1,2,4-triazol-3-yl)piperidin-1-yl]-6′-fluoro-6-(trifluoromethyl)-[2,3′-bipyridine]-4-carbonitrile], for which the IC50 was 2 nM in data set [1], 66 nM in data set [2] (setting [6]), 2 nM in data set [3] and 41 nM in data set [5] (setting [7]). In data set [4], the efflux ratio at 2 h is 6.1. The molecule also yielded a Papp A→B at 2 h in data set [4] of 13 ×10⁻⁶ cm/s.
